For orientation: Ki means the dissociation constant of the complex between target and ligand, obtained from inhibition or displacement. High values mean lower affinity, low ones higher affinity.

Drawing on ChEMBL document CHEMBL1147657, “Indanesulfonamides as carbonic anhydrase inhibitors. Toward structure-based design of selective inhibitors of the tumor-associated isozyme CA IX” (J Med Chem, 2006), this text covers Ki for two compounds.

This experiment has as its target Carbonic anhydrase 9 (Homo sapiens, UniProt Q16790).

As to `NS(=O)(=O)c1ccc2c(c1)CC(NC(=O)c1c(F)c(F)c(F)c(F)c1F)C2` (configuration not stated), the Ki stood at 33 nM.
As for `CCCCCCCCCC(=O)NC1Cc2ccc(S(N)(=O)=O)cc2C1` (configuration not stated), the Ki stood at 3.7 nM.
